Results taken from the supplement of paper PMC10307832.

How the values were obtained:
Test in all cases: relative viability (nuclei count vs DMSO), 5 days (fraction); higher = more cells survive
[1] = compound: C1CC1C(=O)NC2=NNC3=C2C=CC(=C3)C4=CC(=CC=C4)C(=O)NC5CC5 [XMD13-2] + Cc1cc(Nc2cc(N3CCN(C)CC3)nc(Sc3ccc(NC(=O)C4CC4)cc3)n2)n[nH]1 [Tozasertib] (partner 0.1 µM)
Procedure, shortened: (§1)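 Lung cancer cell lines were pin-tool dosed in 1536-well plates on the day after seeding, with either a lone drug or a fixed anchor-drug dose plus five library-drug doses (not always all listed) in √10 steps. Nuclei were counted on 4× images after 5 days. Relative viability is the ratio of treated-well to vehicle-well nuclei counts, with each value a median of duplicate plates.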

[2] = compound: Cc1ccc(C(=O)Nc2cccc(C(F)(F)F)c2)cc1Nc1cncc(C(N)=O)c1 [ALW-II-49-7] + Cc1nc(Nc2ncc(C(=O)Nc3c(C)cccc3Cl)s2)cc(N2CCN(CCO)CC2)n1 [Dasatinib] (partner 0.075 µM)
Procedure, shortened: as §1

[3] = compound: Cc1ccc(C(=O)Nc2cccc(C(F)(F)F)c2)cc1Nc1cncc(C(N)=O)c1 [ALW-II-49-7] + N=C(N)NC(=N)NCCc1ccccc1 [Phenformin] (partner 250 µM)
Procedure, shortened: as §1

[4] = compound: Cc1ccc(C(=O)Nc2cccc(C(F)(F)F)c2)cc1Nc1cncc(C(N)=O)c1 [ALW-II-49-7] + CC(=O)Nc1cccc(-n2c(=O)n(C3CC3)c(=O)c3c(Nc4ccc(I)cc4F)n(C)c(=O)c(C)c32)c1 [Trametinib] (partner 0.02 µM)
Procedure, shortened: as §1

Row | Cell Line | relative viability ([1]; first compound 0.05 µM) | relative viability ([1]; first compound 0.1581 µM) | relative viability ([1]; first compound 0.5 µM) | relative viability ([1]; first compound 1.581 µM) | relative viability ([1]; first compound 5 µM) | relative viability ([2]; first compound 0.08 µM) | relative viability ([2]; first compound 0.253 µM) | relative viability ([2]; first compound 0.8 µM) | relative viability ([2]; first compound 2.53 µM) | relative viability ([2]; first compound 8 µM) | relative viability ([3]; first compound 0.08 µM) | relative viability ([3]; first compound 0.253 µM) | relative viability ([3]; first compound 0.8 µM) | relative viability ([3]; first compound 2.53 µM) | relative viability ([3]; first compound 8 µM) | relative viability ([4]; first compound 0.08 µM) | relative viability ([4]; first compound 0.253 µM) | relative viability ([4]; first compound 0.8 µM) | relative viability ([4]; first compound 2.53 µM) | relative viability ([4]; first compound 8 µM)
1 | NCI-H1623 | 0.5 | 0.456 | 0.437 | 0.42 | 0.483 | 0.465 | 0.531 | 0.618 | 0.532 | 0.479 | 0.566 | 0.504 | 0.574 | 0.565 | 0.564 | – | – | – | – | –
2 | HCC-827 | 0.428 | 0.409 | 0.427 | 0.401 | 0.386 | 0.326 | 0.331 | 0.294 | 0.232 | 0.239 | 0.403 | 0.388 | 0.399 | 0.413 | 0.363 | 0.534 | 0.526 | 0.525 | 0.475 | 0.462
3 | NCI-H322M | 0.563 | 0.52 | 0.456 | 0.456 | 0.517 | 0.246 | 0.256 | 0.261 | 0.251 | 0.231 | 0.684 | 0.697 | 0.711 | 0.777 | 0.612 | 0.484 | 0.533 | 0.506 | 0.472 | 0.515
4 | ChaGo-K-1 | 0.234 | 0.214 | 0.254 | 0.222 | 0.258 | 0.538 | 0.668 | 0.554 | 0.539 | 0.501 | 0.48 | 0.584 | 0.465 | 0.46 | 0.401 | 0.889 | 0.939 | 0.919 | 0.847 | 0.85
5 | BEN | 0.512 | 0.436 | 0.491 | 0.488 | 0.42 | 0.378 | 0.341 | 0.348 | 0.325 | 0.305 | 0.33 | 0.264 | 0.25 | 0.233 | 0.287 | 1.08 | 1.03 | 1.05 | 0.578 | 1.02
6 | NCI-H2347 | 0.559 | 0.577 | 0.727 | 0.487 | 0.517 | 0.264 | 0.302 | 0.301 | 0.34 | 0.356 | 0.455 | 0.334 | 0.329 | 0.26 | 0.297 | 0.326 | 0.299 | 0.252 | 0.297 | 0.28
7 | LOU-NH91 | 0.724 | 0.688 | 0.734 | 0.644 | 0.638 | 0.544 | 0.588 | 0.521 | 0.504 | 0.414 | 0.698 | 0.671 | 0.621 | 0.596 | 0.633 | 0.755 | 0.787 | 0.804 | – | 0.706
8 | NCI-H2228 | 0.267 | 0.32 | 0.273 | 0.209 | 0.237 | 0.57 | 0.391 | 0.509 | 0.538 | 0.455 | 0.286 | 0.215 | 0.328 | 0.251 | 0.334 | 0.413 | 0.408 | 0.406 | 0.521 | 0.373
